In patent US20250282799A1, “SUBSTITUTED PYRIDO[4,3-d]PYRIMIDINES AS KRAS MODULATORS” (Alterome Therapeutics, Inc., priority 2023, published 2025):

Tested on: KRAS G12V dependent lung adenocarcinoma cell line, NCI-H441
Experiment: Cellular pERK (Thr202/Tyr204) FRET/HTRF assay
Format: cell-based
Settings: Homo sapiens, NCI-H441, cellular pERK (Thr202/Tyr204) HTRF, NCI-H441 cells
Summary of the method: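 Read-out is a wash-free FRET sandwich immunoassay for endogenous ERK1/2 phosphorylated on Thr202/Tyr204. Signal was measured in NCI-H441 lung adenocarcinoma cells after 1 hr compound exposure at 37 °C. IC50 values come from fitted concentration-response curves.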

IC50 [nM] | Structure (SMILES)
< 50 | C#Cc1c(F)ccc2cccc(-c3ncc4c(N5CCOC[C@H]6[C@H](F)[C@H]65)nc(OC[C@@]56CCCN5C/C(=C/F)C6)nc4c3F)c12 [Example 129, (1S,7S,8S)-2-(7-(8-Ethynyl-7-fluoronaphthalen-1-yl)-8-fluoro-2-(((S,E)-2-(fluoromethylene)tetrahydro-1H-pyrrolizin-7a(5H)-yl)methoxy)pyrido[4,3-d]pyrimidin-4-yl)-8-fluoro-5-oxa-2-azabicyclo[5.1.0]octane]
< 50 | [2H]C([2H])(Oc1nc(N2CCOC[C@H]3[C@H](F)[C@H]32)c2c(OC)nc(-c3cc(O)cc4ccc(F)c(C#C)c34)c(F)c2n1)[C@@]12CCCN1C[C@H](F)C2 [Example 241, 5-ethynyl-6-fluoro-4-(8-fluoro-4-((1S,7S,8S)-8-fluoro-5-oxa-2-azabicyclo[5.1.0]octan-2-yl)-2-(((2R,7aS)-2-fluorotetrahydro-1H-pyrrolizin-7a(5H)-yl)methoxy-d2)-5-methoxypyrido[4,3-d]pyrimidin-7-yl)naphthalen-2-ol]
< 50 | C#Cc1c(F)ccc2cc(N)cc(-c3ncc4c(N5CCOC[C@H]6[C@H](Cl)[C@H]65)nc(OC[C@@H]5CCCN5C)nc4c3F)c12 [Example 302, 4-(4-((1S,7S,8S)-8-chloro-5-oxa-2-azabicyclo[5.1.0]octan-2-yl)-8-fluoro-2-(((S)-1-methylpyrrolidin-2-yl)methoxy)pyrido[4,3-d]pyrimidin-7-yl)-5-ethynyl-6-fluoronaphthalen-2-amine]
< 50 | [2H]C([2H])(Oc1nc(N2CC[C@@H](C#N)C[C@H]3[C@H](F)[C@H]32)c2cnc(-c3cc(N)cc4ccc(F)c(C#C)c34)c(F)c2n1)[C@@]12CCCN1C[C@H](F)C2 [Example 304, (1S,5S,7R,8S)-2-(7-(3-amino-8-ethynyl-7-fluoronaphthalen-1-yl)-8-fluoro-2-(((2R,7aS)-2-fluorotetrahydro-1H-pyrrolizin-7a(5H)-yl)methoxy-d2)pyrido[4,3-d]pyrimidin-4-yl)-8-fluoro-2-azabicyclo[5.1.0]octane-5-carbonitrile]
< 50 | [2H]c1cc2cc(N)cc(-c3ncc4c(N5CCOC[C@H]6[C@H](F)[C@H]65)nc(OC([2H])([2H])[C@@]56CCCN5C[C@H](F)C6)nc4c3F)c2c(C#C)c1F [Example 256, 5-ethynyl-6-fluoro-4-(8-fluoro-4-((1S,7S,8S)-8-fluoro-5-oxa-2-azabicyclo[5.1.0]octan-2-yl)-2-(((2R,7aS)-2-fluorotetrahydro-1H-pyrrolizin-7a(5H)-yl)methoxy-d2)pyrido[4,3-d]pyrimidin-7-yl)naphthalen-7-d-2-amine]
500 to 10000 | Nc1cc(Cl)c(C(F)(F)F)c(-c2ncc3c(N4CCCC[C@@H]5[C@@H](F)[C@@H]54)nc(OC[C@@]45CCCN4CC(=C(F)F)C5)nc3c2F)c1 [Example 370, 3-chloro-5-(2-(((S)-2-(difluoromethylene)tetrahydro-1H-pyrrolizin-7a(5H)-yl)methoxy)-8-fluoro-4-((1R,7S,8R)-8-fluoro-2-azabicyclo[5.1.0]octan-2-yl)pyrido[4,3-d]pyrimidin-7-yl)-4-(trifluoromethyl)aniline]
500 to 10000 | [2H]C([2H])(Oc1nc(N2CCOC[C@H]3[C@H](F)[C@H]32)c2c(O)nc(-c3cc(N)cc4ccc(F)c(C#C)c34)c(F)c2n1)[C@@]12CCCN1C[C@H](F)C2 [Example 401, 7-(3-amino-8-ethynyl-7-fluoronaphthalen-1-yl)-8-fluoro-4-((1S,7S,8S)-8-fluoro-5-oxa-2-azabicyclo[5.1.0]octan-2-yl)-2-(((2R,7aS)-2-fluorotetrahydro-1H-pyrrolizin-7a(5H)-yl)methoxy-d2)pyrido[4,3-d]pyrimidin-5-ol]
< 50 | [2H]C([2H])(F)Oc1c(F)ccc2cc(N)cc(-c3ncc4c(N5CCCC[C@H]6[C@H](F)[C@H]65)nc(OC[C@]56C/C(=C/F)CN5CCC65CC5)nc4c3F)c12 [Example 409, 6-fluoro-4-(8-fluoro-4-((1S,7R,8S)-8-fluoro-2-azabicyclo[5.1.0]octan-2-yl)-2-(((R,Z)-6′-(fluoromethylene)tetrahydrospiro [cyclopropane-1,1′-pyrrolizin]-7a′(5′H)-yl)methoxy)pyrido[4,3-d]pyrimidin-7-yl)-5-(fluoromethoxy-d2)naphthalen-2-amine]
< 50 | Nc1cc(Cl)c(C(F)(F)F)c(-c2ncc3c(N4CCCC[C@H]5[C@H](F)[C@H]54)nc(OC[C@]45C/C(=C/F)CN4CCC54CC4)nc3c2F)c1 [Example 406, 3-chloro-5-(8-fluoro-4-((1S,7R,8S)-8-fluoro-2-azabicyclo[5.1.0]octan-2-yl)-2-(((R,Z)-6′-(fluoromethylene)tetrahydrospiro [cyclopropane-1,1′-pyrrolizin]-7a′(5′H)-yl)methoxy)pyrido[4,3-d]pyrimidin-7-yl)-4-(trifluoromethyl)aniline]
< 50 | [2H]C([2H])(F)Oc1c(F)ccc2cc(N)cc(-c3ncc4c(N5CCOC[C@H]6[C@H](F)[C@H]65)nc(OC[C@@]56CCCN5CC(=C)C6)nc4c3F)c12 [Example 189, 6-fluoro-4-(8-fluoro-4-((1S,7S,8S)-8-fluoro-5-oxa-2-azabicyclo[5.1.0]octan-2-yl)-2-(((S)-2-methylenetetrahydro-1H-pyrrolizin-7a(5H)-yl)methoxy)pyrido[4,3-d]pyrimidin-7-yl)-5-(fluoromethoxy-d2)naphthalen-2-amine]
< 50 | [2H]C([2H])(F)Oc1c(F)ccc2cccc(-c3ncc4c(N5CCOC[C@H]6[C@H](F)[C@H]65)nc(OC[C@@]56CCCN5CC(=C(F)F)C6)nc4c3F)c12 [Example 146, (1S,7S,8S)-2-(2-(((S)-2-(difluoromethylene)tetrahydro-1H-pyrrolizin-7a(5H)-yl)methoxy)-8-fluoro-7-(7-fluoro-8-(fluoromethoxy-d2)naphthalen-1-yl)pyrido[4,3-d]pyrimidin-4-yl)-8-fluoro-5-oxa-2-azabicyclo[5.1.0]octane]
< 50 | C#Cc1c(F)ccc2cc(N)cc(-c3ncc4c(N5CCOC[C@H]6[C@H](F)[C@H]65)nc(OC[C@@]56CCC(C)(C)N5C[C@H](F)C6)nc4c3F)c12 [Example 239, 5-ethynyl-6-fluoro-4-(8-fluoro-2-(((2R,7aS)-2-fluoro-5,5-dimethyltetrahydro-1H-pyrrolizin-7a(5H)-yl)methoxy)-4-((1S,7S,8S)-8-fluoro-5-oxa-2-azabicyclo[5.1.0]octan-2-yl)pyrido[4,3-d]pyrimidin-7-yl)naphthalen-2-amine]
500 to 10000 | [2H]C([2H])(Oc1nc(N2CCOC[C@@H]3[C@@H](F)[C@@H]32)c2cc(F)c(-c3cc(N)cc(C4CC4)c3C(F)(F)F)c(F)c2n1)[C@@]12CCCN1C[C@H](F)C2 [Example 164, 3-cyclopropyl-5-(6,8-difluoro-4-((1R,7R,8R)-8-fluoro-5-oxa-2-azabicyclo[5.1.0]octan-2-yl)-2-(((2R,7aS)-2-fluorotetrahydro-1H-pyrrolizin-7a(5H)-yl)methoxy-d2)quinazolin-7-yl)-4-(trifluoromethyl)aniline]
500 to 10000 | Nc1cc(Cl)c(C(F)(F)F)c(-c2ncc3c(N4CCCC[C@@H]5[C@@H](F)[C@@H]54)nc(OC[C@@]45CCCN4C/C(=C\F)C5)nc3c2F)c1 [Example 374, 3-chloro-5-(8-fluoro-4-((1R,7S,8R)-8-fluoro-2-azabicyclo[5.1.0]octan-2-yl)-2-(((S,Z)-2-(fluoromethylene)tetrahydro-1H-pyrrolizin-7a(5H)-yl)methoxy)pyrido[4,3-d]pyrimidin-7-yl)-4-(trifluoromethyl)aniline]

Same assay, conditions: Homo sapiens, NCI-H441, pERK HTRF, NCI-H441 cells (KRAS G12V)

IC50 [nM] | Structure (SMILES)
< 50 | [2H]C([2H])([2H])Oc1c(F)c(F)c(F)c2cc(N)cc(-c3ncc4c(N5CCOC[C@H]6[C@H](F)[C@H]65)nc(OC([2H])([2H])[C@@]56CCCN5C[C@H](F)C6)nc4c3F)c12 [Example 41, 6,7,8-Trifluoro-4-(8-fluoro-4-((1S,7S,8S)-8-fluoro-5-oxa-2-azabicyclo[5.1.0]octan-2-yl)-2-(((2R,7aS)-2-fluorotetrahydro-1H-pyrrolizin-7a(5H)-yl)methoxy-d2)pyrido[4,3-d]pyrimidin-7-yl)-5-(methoxy-d3)naphthalen-2-amine]
500 to 10000 | [2H]C([2H])(Oc1nc(N2CCOC[C@@H]3C[C@@H]32)c2cnc(-c3ccc(F)c4sc(N)c(C#N)c34)c(F)c2n1)[C@@]12CCCN1C[C@H](F)C2 [Example 47, 4-(4-((1S,7R)-5-Oxa-2-azabicyclo[5.1.0]octan-2-yl)-8-fluoro-2-(((2R,7aS)-2-fluorotetrahydro-1H-pyrrolizin-7a(5H)-yl)methoxy-d2)pyrido[4,3-d]pyrimidin-7-yl)-2-amino-7-fluorobenzo[b]thiophene-3-carbonitrile]
< 50 | [2H]C([2H])(Oc1nc(N2CCOC[C@H]3[C@H](F)[C@H]32)c2cnc(-c3cccc4cc(F)c(F)c(C#C)c34)c(F)c2n1)[C@@]12CCCN1C[C@H](F)C2 [Example 42, (1S,7S,8S)-2-(7-(8-Ethynyl-6,7-difluoronaphthalen-1-yl)-8-fluoro-2-(((2R,7aS)-2-fluorotetrahydro-1H-pyrrolizin-7a(5H)-yl)methoxy-d2)pyrido[4,3-d]pyrimidin-4-yl)-8-fluoro-5-oxa-2-azabicyclo[5.1.0]octane]
50 to 500 | [2H]C([2H])(Oc1nc(N2CCCC[C@H]3[C@H](F)[C@H]32)c2cnc(-c3cncc4cc(F)c(F)c(OC)c34)c(F)c2n1)[C@@]12CCCN1C[C@H](F)C2 [Example 83, 7-(6,7-Difluoro-5-methoxyisoquinolin-4-yl)-8-fluoro-4-((1S,7R,8S)-8-fluoro-2-azabicyclo[5.1.0]octan-2-yl)-2-(((2R,7aS)-2-fluorotetrahydro-1H-pyrrolizin-7a(5H)-yl)methoxy-d2)pyrido[4,3-d]pyrimidine]
